Experiment [1] relates to Acinetobacter baumannii ATCC 17978. The experiment in a line: Serum MIC, broth micro-dilution. The experiment is classed as cell-based. To be noted: Acinetobacter baumannii, ATCC17978. Summed up: (§1)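 Serum-shifted MIC: medium is a 1:1 v/v mix of cation-adjusted MH II broth and mouse serum. 10-point 2-fold dilution series, top 64, 4, 0.5 or 0.13 μg/mL depending on protocol. Inoculum OD600 0.0005 final; 35° C, 22 h.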
On the technique in general: In broth dilution the organism is exposed to a series of concentrations in liquid medium.

Experiment [2] relates to Klebsiella pneumoniae ATCC 700603. The experiment in a line: Serum MIC, broth micro-dilution. The experiment is classed as cell-based. Conditions: Klebsiella pneumoniae, ATCC700603. In a few lines:
as §1

The test system of experiment [3] is Escherichia coli strain ATCC 25922. The experiment in a line: Serum MIC, broth micro-dilution. The experiment is classed as cell-based. To be noted: Escherichia coli, ATCC25922, read-out: E. coli 25922 Serum MIC. In a few lines: as §1
For experiment [4], the system named is Pseudomonas aeruginosa PA01. The experiment is described as follows: Serum MIC, broth micro-dilution. The experiment is classed as cell-based. To be noted: Pseudomonas aeruginosa, PA01, read-out: P. aeruginosa 01 Serum MIC. In a few lines:
as §1

Experiment [5] has as its system isolated liver mitochondria. The experiment in a line: Mitochondrial oxygen consumption rate (OCR) assay. Conditions: isolated rat liver mitochondria, state 3 (S3) respiration. The experiment is classed as biochemical, Sprague-Dawley rats. An excerpt:
Male Sprague-Dawley rats (8-10 weeks of age) were euthanized with an overdose of carbon dioxide. The liver was rapidly excised and placed in ice-cold phosphate-buffered saline (PBS) before isolation process. Mitochondria were isolated using the MitoCheck® Mitochondrial Isolation Kit (Cayman Chemical #701010, Ann Arbor, Mich.) according to manufacturer's instructions. In brief, approximately 10-14 grams of liver tissues were finely minced using a pair of scissors, and washed repeatedly with ice-cold PBS, followed by Mito Isolation Buffer. The minced tissues were homogenized with 30 ml Mito Homogenization Buffer in 40 ml dounce homogenizer and a smooth glass grinder. The homogenate was split into two clean 30 ml polycarbonate tubes and centrifuged at 1,000×g, 4° C., for 3 minutes. The supernatant was subjected to further centrifugation at 10,000×g, 4° C., for 10 minutes. The supernatant was discarded and mitochondrial pellet was suspended in Mito Isolation Buffer using a glass stirring rod and stored on ice until use. Protein concentration of mitochondria was determined using a bicinchoninic acid protein assay kit (Thermo Scientific, Waltham, Mass.).
Oxygen consumption was monitored as essentially described by Will et al., “Analysis of mitochondrial function using phosphorescent oxygen-sensitive probes,” Nature Protocols Vol. 1(6) (2006) 2563. Briefly, isolated mitochondria (50 μg mitochondrial proteins/state 3 (S3) of mitochondrial respiration for inhibitor identification, 100 μg/S2 for uncoupler identification) were incubated with compounds in 25 μl of Measurement Buffer (MB: 250 mM sucrose, 15 mM KCl, 1 mM EGTA, 5 mM MgCl2, 30 mM K2HPO4, pH 7.4) including 1% DMSO on ice for 1 hour, then mixed with 25 μl of substrate mixture including an oxygen-sensitive phosphorescent dye (MitoXpress Xtra, Agilent, Santa Clara, Calif.), glutamate (25 mM, G1626, Sigma, St. Louis, Mo.), malate (25 mM, M6413, Sigma), ADP (3.3 mM, A2754, Sigma, only for S3 of mitochondrial respiration), Fatty acid free BSA (0.1%, A0281, Sigma), and a complex II-specific inhibitor TTFA (2 μM, T27006, Sigma for the assessment of complex I-mitochondrial respiration with glutamate/malate) in a black wall/clear bottom 384-well plate. The mixtures were covered with HS mineral oil (Agilent) using the Viaflo 384-channel pipette (Integra, Hudson, N.H.). Oxygen consumption was measured for 30 min at 30° C. using a spectrofluorimeter (FLUOstar Omega, BMG Labtech, Cary, N.C.). In S3, DMSO vehicle control and antimycin A (10 μM) were used to define 0% and 100% inhibition. In S2, DMSO vehicle and FCCP (0.5-1 μM) was used to define 0% and 100% uncoupling, respectively. Area under curve typically in a range of 0-12 min (S3) or 0-24 min (S2) was used for calculations. IC50 or UC50 (uncoupling concentration), a concentration that causes 50% of inhibition or maximal (uncoupling) activation of oxygen consumption, was used to evaluate experimental quality. Data were presented as μM (per 50 μg (S3) or 100 μg (S2) mitochondrial proteins). Compounds with IC50: <100 μM (S3) and/or UC50: <200 μM (S2) were considered as high-risk on mitochondrial toxicity. Compounds with 25-50% changes in inhibition and/or uncoupling were categorized as medium-risk, since compounds with >25% changes are considered as responders.
Toxicity associated with mitochondrial dysfunction has presented a problem for promising potential antibiotics as we as other types of therapeutics. The mitochondrial oxygen consumption rate (OCR) assay is considered a reliable indicator of potential internal organ toxicity issues that may occur with powerful antibiotics. The carboxylate compounds of the invention show unexpected lower toxicity than prior art “glycine nitrile” arylomycin analogs (see, e.g., WO 2018/149419) in the mitochondrial oxygen consumption rate (OCR) assay.

Setting [6] is: 50% v/v mouse serum, compounds of Table 1, Table 7.
[7] abbreviates: 50% v/v mouse serum in Mueller Hinton II cation adjusted Broth, 35° C., 22 hours, Table 4, read-out: A. baumanii 17978 Serum MIC.
Where [8] appears, read: 50% v/v mouse serum in Mueller Hinton II cation adjusted Broth, 35° C., 22 hours, Table 5, read-out: Acinetobacter baumanii 17978 Serum MIC.
The mark [9] stands for this setting: 50% v/v mouse serum in Mueller Hinton II cation adjusted Broth, 35° C., 22 hours, Table 4, read-out: K pneumoniae 700603 Serum MIC.
Where [10] appears, read: 50% v/v mouse serum in Mueller Hinton II cation adjusted Broth, 35° C., 22 hours, Table 4.

Values after ≈ are worked out from the molar mass of the structure shown. Read-outs that look alike come from different tables or passages of the source.

What is called MIC is the lowest concentration found to suppress growth. The IC50 is the midpoint of a concentration-inhibition curve. High values mean weaker potency, low ones greater potency.

With `Cc1nc(-c2ccc(C(C)(C)C)cc2)nc(C)c1C(=O)N[C@@H](CCN)C(=O)N(C)[C@@H]1C(=O)N[C@@H](C)C(=O)N[C@H](C(=O)NCC#N)Cc2ccc(O)c(c2)-c2cc1ccc2OCCN` (racemic) [Example 254], the MIC came out at 9.3 µM (≈ 8.01 µg/mL) in experiment [1] (50% v/v mouse serum, compounds of Table 1, Table 7, read-out: A. baumanii 17978 Serum MIC); 0.73 µM (≈ 0.629 µg/mL) in experiment [2] (50% v/v mouse serum, compounds of Table 1, Table 7, read-out: K. pneumoniae 700603 Serum MIC); 0.19 µM (≈ 0.164 µg/mL) in experiment [3] (setting [6]); 13 µM (≈ 11.2 µg/mL) in experiment [4] (setting [6]). The molecule further showed an IC50 in experiment [5] (compounds of Table 1, Table 6) of 20 µM.
As to `Cc1nc(-c2ccc(C(C)(C)C)cc2)ncc1C(=O)N[C@@H](CNS(N)(=O)=O)C(=O)N(C)[C@@H]1C(=O)N[C@@H](C)C(=O)N[C@H](C(=O)O)Cc2ccc(OC[C@H](O)CN)c(c2)-c2cc1cc(OC[C@H](O)CN)c2O` [Example 8, (8S,11S,14S)-18-hydroxy-11-methyl-14-[methyl-[(2S)-2-[[2-(4-tert-butyl-phenyl)-4-methyl-pyrimidine-5-carbonyl]amino]-3-(sulfamoylamino)-propanoyl]amino]-10,13-dioxo-3,17-bis[(2R)-3-amino-2-hydroxy-propoxy]-9,12-diazatricyclo-[13.3.1.12,6]icosa-1(18),2(20),3,5,15(19), 16-hexaene-8-carboxylic acid], the MIC in experiment [1] (setting [7]) was determined as 16 µM (≈ 15.9 µg/mL); in experiment [1] (setting [8]), 16 µM (≈ 15.9 µg/mL); in experiment [2] (setting [9]), 0.5 µM (≈ 0.497 µg/mL); in experiment [3] (setting [10]), 0.38 µM (≈ 0.377 µg/mL); in experiment [4] (setting [10]) it was 7 µM (≈ 6.95 µg/mL). The IC50 in experiment [5] (glutamate/malate, Table 3) was 28 µM.
For the molecule `Cc1nc(-c2ccc(C(C)(C)C)cc2)nc(C)c1C(=O)N[C@@H](CNS(N)(=O)=O)C(=O)N(C)[C@@H]1C(=O)N[C@@H](C)C(=O)N[C@H](C(=O)O)Cc2ccc(OC[C@H](O)CN)c(c2)-c2cc1cc(OC[C@H](O)CN)c2O` [Example 7, (8S,11S,14S)-18-hydroxy-11-methyl-14-[methyl-[(2S)-2-[[2-(4-tert-butyl-phenyl)-4,6-dimethyl-pyrimidine-5-carbonyl]amino]-3-(sulfamoylamino)-propanoyl]amino]-10,13-dioxo-3,17-bis[(2R)-3-amino-2-hydroxy-propoxy]-9,12-diazatricyclo-[13.3.1.12,6]icosa-1(18),2(20),3,5,15(19), 16-hexaene-8-carboxylic acid], the MIC in experiment [1] (setting [7]) amounted to 9.3 µM (≈ 9.37 µg/mL); in experiment [1] (setting [8]) it was 9.3 µM (≈ 9.37 µg/mL); in experiment [2] (setting [9]), 0.46 µM (≈ 0.463 µg/mL); in experiment [3] (setting [10]), 0.42 µM (≈ 0.423 µg/mL); in experiment [4] (setting [10]), 4.3 µM (≈ 4.33 µg/mL). In experiment [5] (glutamate/malate, Table 3), the IC50 is above 250 µM.
On to `Cc1nc(-c2ccc(C(C)(C)C)cc2)nc(C)c1C(=O)N[C@@H](CN)C(=O)N(C)[C@@H]1C(=O)N[C@@H](C)C(=O)N[C@H](C(=O)O)Cc2ccc(OC[C@H](O)CN)c(c2)-c2cc1cc(OC[C@H](O)CN)c2O` [Example 30, (8S,11S,14S)-18-hydroxy-11-methyl-14-[methyl-[(2S)-3-amino-2-[[2-(4-tert-butylphenyl)-4,6-dimethyl-pyrimidine-5-carbonyl]amino]-propanoyl]amino]-10,13-dioxo-3,17-bis[(2R)-3-amino-2-hydroxy-propoxy]-9,12-diazatricyclo-[13.3.1.12,6]icosa-1(18),2(20),3,5,15(19), 16-hexaene-8-carboxylic acid], for which the MIC in experiment [1] (setting [7]) was determined as 32 µM (≈ 29.7 µg/mL); in experiment [1] (setting [8]), 32 µM (≈ 29.7 µg/mL); in experiment [2] (setting [9]), 0.75 µM (≈ 0.696 µg/mL); in experiment [3] (setting [10]), 1 µM (≈ 0.928 µg/mL); in experiment [4] (setting [10]), 16 µM (≈ 14.8 µg/mL). In experiment [5] (glutamate/malate, Table 3), the IC50 was above 250 µM.
As to `Cc1nc(-c2ccc(C3(C)CC3)cc2)ncc1C(=O)N[C@@H](CCN)C(=O)N(C)[C@@H]1C(=O)N[C@@H](C)C(=O)N[C@H](C(=O)O)Cc2ccc(OC[C@H](O)CN)c(c2)-c2cc1cc(OC[C@H](O)CN)c2O` [Example 28, (8S,11S,14S)-18-hydroxy-11-methyl-14-[methyl-[(2S)-4-amino-2-[[4-methyl-2-[4-(1-methylcyclo-propyl)phenyl]-pyrimidine-5-carbonyl]amino]-butanoyl]amino]-10,13-dioxo-3,17-bis[(2R)-3-amino-2-hydroxy-propoxy]-9,12-diazatricyclo-[13.3.1.12,6]icosa-1(18),2(20),3,5,15(19), 16-hexaene-8-carboxylic acid], the MIC in experiment [1] (setting [7]) was found to be 11 µM (≈ 10.2 µg/mL); in experiment [1] (setting [8]) it was 11 µM (≈ 10.2 µg/mL); in experiment [2] (setting [9]) it was 0.17 µM (≈ 0.157 µg/mL); in experiment [3] (setting [10]) it was 0.21 µM (≈ 0.194 µg/mL); in experiment [4] (setting [10]) it was 43 µM (≈ 39.8 µg/mL). The molecule further came in with an IC50 in experiment [5] (glutamate/malate, Table 3) above 250 µM.
Turning to `Cc1nc(-c2ccc(C(C)(C)C)cc2)nc(N)c1C(=O)N[C@@H](CNS(N)(=O)=O)C(=O)N(C)[C@@H]1C(=O)N[C@@H](C)C(=O)N[C@H](C(=O)O)Cc2ccc(OC[C@@H](O)CN)c(c2)-c2cc1cc(OC[C@@H](O)CN)c2O` [Example 64, (8S,11S,14S)-14-[[(2S)-2-[[4-amino-2-(4-tert-butylphenyl)-6-methyl-pyrimidine-5-carbonyl]amino]-3-(sulfamoylamino)-propanoyl]-methyl-amino]-3,17-bis[(2S)-3-amino-2-hydroxy-propoxy]-18-hydroxy-11-methyl-10,13-dioxo-9,12-diazatri-cyclo[13.3.1.12,6]icosa-1(18),2(20),3,5,15(19), 16-hexaene-8-carboxylic acid], the MIC turned out to be 8 µM (≈ 8.06 µg/mL) in experiment [1] (setting [7]); 8 µM (≈ 8.06 µg/mL) in experiment [1] (setting [8]); 0.5 µM (≈ 0.504 µg/mL) in experiment [2] (setting [9]); 0.5 µM (≈ 0.504 µg/mL) in experiment [3] (setting [10]); 4 µM (≈ 4.03 µg/mL) in experiment [4] (setting [10]). This molecule had an IC50 in experiment [5] (glutamate/malate, Table 3) above 100 µM.
